Here are results for 16 compounds from US5914327A, “Biaryl-pyridoquinazolinone derivatives as anti-cancer agents” (American Cyanamid Company, priority 1997, dated 1999).

Usually IC50 stands for the concentration that gives 50% inhibition.

≈ marks a conversion by molar mass, not a printed value. Where a name gives a salt, the structure may show the parent alone.

Experiment [1] relates to COLON 26. Briefly: Murine Colon 26 Advanced, Metastatic Tumor. In kind it is in vivo, murine (CD2F1 mice). The procedure: (§1) Murine Tumor Standard Pharmacological Test Procedures
Murine Colon 26 Advanced, Metastatic Tumor
CD2F1 mice are injected i.p. with 5×10^5 tumor cells on Day 0 of the test. […]

For experiment [2], the system named is A2780 DDP. Briefly: In vitro cytotoxicity, two cell line test procedure (A2780 DDP). Format: cell-based. The conditions noted are these: Homo sapiens, 48 hours exposure, sulforhodamine B, cisplatin-resistant. The procedure: (§2) Description of the two cell line test procedure
(§3) A2780 S and A2780 DDP cells [Biochemical and Molecular Properties of Cisplatin-resistant A2780 Cells Grown in Folinic Acid; Y. Lu, J. Hnan, and K. Scanlon, J. Biol. Chem., 263, 4891-4894, 1988.] are grown in RPMI 1640 medium containing 5% fetal calf serum, 50 μg/ml streptomycin, 50 units/ml penicillin, 50 μg/ml gentamycin, 0.03% L-glutamine, 1 nM estradiol, 1 nM testosterone, 5 μg/mlinsulin, 5 μg/ml transferrin, and 5 ng/ml selenous acid, at 37° C., in a humidified atmosphere, containing 5% CO2. Experiments are done in the same media.
(§4) Cells are plated at the concentration of 5×10^4 /ml on Day 0 of the experiment. On Day one control cells are fixed with trichloroacetic acid and 5 ten fold dilutions of tested compounds are added, in duplicates, to the remaining cells. On Day 3 (48 hours exposure to drugs) all cells are fixed with trichloroacetic acid, stained with 0.4% sulforhodamine B, and absorbency is read at 520 nm. The IC50s (concentration causing 50% inhibition) are determined for each drug.

For experiment [3], the system named is LS174T. Description: Human Tumor Xenograft Standard Pharmacological Test Procedure. In kind it is in vivo, human tumor in athymic nude mice. To be noted: days 1,5,9. The text has this:
Human Tumor Xenograft Standard Pharmacological Test Procedure

Experiment [4] deals with A2780 S. Briefly: In vitro cytotoxicity, two cell line test procedure (A2780 S). In kind it is cell-based. The conditions noted are these: Homo sapiens, A2780S; 48 hours exposure, sulforhodamine B. The procedure: as §2, §3, §4
In experiment [5] the test system is P388. Briefly: Murine P388 Leukemia. Format: in vivo, murine (CD2F1 mice). To be noted: days 1,5,9. The procedure: as §1
CD2F1 mice are injected i.p. with 1×10^6 tumor cells on Day 0 of the test. Drugs are administered i.p. on Days 1, 5, and 9 after the tumor implantation.

The test system of experiment [6] is P388. Briefly: Murine P388 Leukemia. Format: in vivo, murine (CD2F1 mice). The conditions noted are these: 200 mg/kg i.p., days 1,5.
The conditions of experiment [7]: Denny et al., Mutation Research 232: 233 (1990); cited from earlier work.
Experiment [8] concerns P388. The conditions noted are these: Denny et al., Mutation Research 232: 233 (1990); cited from earlier work.

In the case of `COc1cccc2c1C(=O)c1c(O)c3c(c(O)c1C2=O)C[C@@](O)(C(=O)CO)C[C@@H]3O[C@H]1C[C@H](N)[C@H](O)[C@H](C)O1` [Adriamycin, reference compound], in experiment [1] (4 mg/kg i.p., days 5,9,14), the “% ILS” value is “+71 % ILS”.

As to `CN(C)CCNC(=O)c1cccn2c(=O)c3cc(-c4cccc(N)c4)ccc3nc12` [Example 13, 11H-Pyrido[2,1-b]quinazoline-6-carboxamide, 2-(3-aminophenyl)-N-[2-(dimethylamino)ethyl]-11-oxo], the figures for the half-inhibitory concentration (IC50) in experiment [2] and in experiment [4] were 3.7 µg/mL (≈ 9.22 µM) and 0.4 µg/mL (≈ 0.996 µM), respectively. Further, the “% T/C (relative tumor growth treated/placebo)” value in experiment [3] (250 mg/kg i.p.) was determined as 59 % T/C; in experiment [3] (300 mg/kg i.p.), 44 % T/C. Further, the “% ILS” value in experiment [5] (25 mg/kg i.p.) is given as “+4 % ILS”; in experiment [5] (50 mg/kg i.p.), “+2 % ILS”; in experiment [5] (100 mg/kg i.p.), “+20 % ILS”; in experiment [5] (200 mg/kg i.p.), “+57 % ILS”; in experiment [1] (100 mg/kg i.p., days 5,9,13), “+18 % ILS”; in experiment [1] (200 mg/kg i.p., days 5,9,13), “+24 % ILS”. In experiment [1] (250 mg/kg i.p., days 5,9,13), the “% ILS” value was “+35 % ILS”.

Regarding `CN(C)CCNC(=O)c1cccn2c(=O)c3cc(-c4ccccc4-c4ccccc4)ccc3nc12` [Example 14, 11H-Pyrido[2,1-b]quinazoline-6-carboxamide, 2-[1,1'biphenyl]-2-yl-N-[2-(dimethylamino)ethyl]-11-oxo], the IC50 in experiment [2] worked out at 4.8 µg/mL (≈ 10.4 µM); in experiment [4], 4.4 µg/mL (≈ 9.51 µM).

Regarding `CN(C)CCNC(=O)c1cccn2c(=O)c3cc(-c4cccc(-c5ccccc5)c4)ccc3nc12` [Example 15, 11H-Pyrido[2,1-b]quinazoline-6-carboxamide, 2-[1,1'-biphenyl]-3-yl-N-[2-(dimethylamino)ethyl]-11-oxo], the half-inhibitory concentration (IC50) in experiment [2] stood at 0.8 µg/mL (≈ 1.73 µM); in experiment [4], 0.6 µg/mL (≈ 1.3 µM). Moreover, the “% ILS” value was “+8 % ILS” in experiment [5] (50 mg/kg i.p.), “+2 % ILS” in experiment [5] (100 mg/kg i.p.) and -40 % ILS in experiment [6].

Take `CN(C)CCNC(=O)c1cccn2c(=O)c3cc(-c4cc5ccccc5c5ccccc45)ccc3nc12` [Example 16]: the IC50 in experiment [2] worked out at 5.3 µg/mL (≈ 10.9 µM); in experiment [4] it was 4.1 µg/mL (≈ 8.43 µM).

Take `CN(C)CCNC(=O)c1cccn2c(=O)c3cc(-c4cccc5ccccc45)ccc3nc12` [Example 17, 11H-pyrido[2,1-b)quinazoline-6-carboxamide, N-[2-(dimethylamino)ethyl]-2-(1-naphthalenyl)-11-oxo]: the IC50 amounted to 4.7 µg/mL (≈ 10.8 µM) in experiment [2] and 4.6 µg/mL (≈ 10.5 µM) in experiment [4].

Turning to `CN(C)CCNC(=O)c1cccn2c(=O)c3cc(-c4cccc(C(F)(F)F)c4)ccc3nc12` [Example 18], the half-inhibitory concentration (IC50) in experiment [2] came to 4.2 µg/mL (≈ 9.24 µM); in experiment [4], 1.1 µg/mL (≈ 2.42 µM).

Turning to `COc1ccc(-c2ccc3nc4c(C(=O)NCCN(C)C)cccn4c(=O)c3c2)cc1` [Example 19, 11H-Pyrido[2,1-b]quinazoline-6-carboxamide, N-[2-(dimethylamino)ethyl]-2-(4-methoxyphenyl)-11-oxo], the IC50 came to 3.4 µg/mL (≈ 8.16 µM) in experiment [2] and 4.3 µg/mL (≈ 10.3 µM) in experiment [4]. Besides, the “% ILS” value in experiment [5] (50 mg/kg i.p.) is reported as -9 % ILS; in experiment [5] (100 mg/kg i.p.) it was “+4 % ILS”; in experiment [5] (200 mg/kg i.p.) it was “+6 % ILS”.

For the compound `CN(C)CCNC(=O)c1cccn2c(=O)c3cc(-c4cc(C(F)(F)F)cc(C(F)(F)F)c4)ccc3nc12` [Example 20, 11H-Pyrido[2,1-b]quinazoline-6-carboxamide, 2-[3,5-bis(trifluoromethyl)phenyl]-N-[2-(dimethylamino)ethyl]-11-oxo], the figures for the IC50 in experiment [2] and in experiment [4] were 3 µg/mL (≈ 5.74 µM) and 3.8 µg/mL (≈ 7.27 µM), respectively.

Consider `CN(C)CCNC(=O)c1cccn2c(=O)c3cc(-c4cccc(N(C)C)c4)ccc3nc12` [Example 21], for which the 50% inhibitory concentration (IC50) in experiment [2] is 0.5 µg/mL (≈ 1.16 µM); in experiment [4], 0.2 µg/mL (≈ 0.466 µM).

As for `Nc1cccc(-c2ccc3nc4c(C(=O)NCCNCCO)cccn4c(=O)c3c2)c1` [Example 24, 11H-Pyrido [2,1-b]quinazoline-6-carboxamide, 2-(3-aminophenyl)-N-[2-[(2-hydroxyethyl)amino]ethyl]-11-oxo-trihydrochloride], the concentration for half-maximal inhibition (IC50) in experiment [2] was determined as 2.1 µg/mL; in experiment [4], 0.6 µg/mL. Further, the “% ILS” value in experiment [5] (25 mg/kg i.p.) is on record as “+12 % ILS”; in experiment [5] (50 mg/kg i.p.) it was “+4 % ILS”; in experiment [5] (100 mg/kg i.p.), “+4 % ILS”; in experiment [5] (200 mg/kg i.p.) it was 0 % ILS; in experiment [1] (200 mg/kg i.p., days 5,9,13) it was “+24 % ILS”; in experiment [1] (300 mg/kg i.p., days 5,9,13), -24 % ILS.

For the compound `O=C(NCCNCCO)c1cccn2c(=O)c3cc(-c4ccccc4)ccc3nc12` [Example 26, 11H-pyrido[2,1-b]quinazoline-6-carboxamide, N-[2-[(2-hydroxyethyl)amino]-ethyl]-11-oxo-2-phenyl, dihydrochloride], the IC50 was 3.5 µg/mL in experiment [2] and 0.8 µg/mL in experiment [4].

For `Nc1ccccc1-c1ccc2nc3c(C(=O)NCCNCCO)cccn3c(=O)c2c1` [Example 30, 11H-Pyrido[2,1-b]quinazoline-6-carboxamide, 2-(2-aminophenyl)-N-[2-[(2-hydroxyethyl)amino]ethyl]-11-oxo-trihydrochloride], the IC50 in experiment [2] was determined as 6.9 µg/mL; in experiment [4], 4.8 µg/mL.

In the case of `CN(C)CCNC(=O)c1cccn2c(=O)c3ccc(-c4cccc(N)c4)cc3nc12` [Example 35, 11H-Pyrido[2,1-b]quinazoline-6-carboxamide, 3-(3-aminophenyl)-N-[2-(dimethylamino)ethyl]-11-oxo], the IC50 in experiment [2] is 0.4 µg/mL (≈ 0.996 µM); in experiment [4] it was 0.5 µg/mL (≈ 1.25 µM).

As for `CN(C)CCNC(=O)c1cccn2c(=O)c3ccccc3nc12` [I, N-[2-(dimethylamino)ethyl]-11-oxo-11H-pyrido[2,1-b]quinalzoline-6-carboxamide], the in vitro activity entry in experiment [7] is “showed some in vitro activity”. Further, in experiment [8], the “activity in P388 mouse model” value was “inactive in a P388 mouse model”.

As for `CC[C@]1(O)C[C@H]2CN(CCc3c([nH]c4ccccc34)[C@@](C(=O)OC)(c3cc4c(cc3OC)N(C=O)[C@H]3[C@@](O)(C(=O)OC)[C@H](OC(C)=O)[C@]5(CC)C=CCN6CC[C@]43[C@@H]65)C2)C1` [Vincristine, reference compound], the “% T/C (relative tumor growth treated/placebo)” value in experiment [3] (1.0 mg/kg i.p.) was 52 % T/C. Further, the “% ILS” value in experiment [5] (0.8 mg/kg i.p.) is “+114 % ILS”.
